Measurements published in patent US20050220834A1 (priority 2004, published 2005).

System: bipolaris sorokininan
Test: Seed treatment: disease prevention and yield keeping on wheat
Type: in vivo
Conditions: treated seeds
Protocol: Seeds treaed with FA whose weight amount to 0.2% seed by weight have disease prevention effect for bipolaris sorokininan and yield keeping effect. After the seeds were treated, the wheat developed well and occurrence of powdery mildew was less compared to blank. Yield keeping effect of mixture of FAn and triazolone was improved from 7.79% of single use of triazolone to 10.67%.

For `CC(C)(C)C(=O)C(Oc1ccc(Cl)cc1)n1cncn1` (stereo not shown) [triazolone], the “yield keeping effect (%)” value was 7.79%.
